The structures appear in SMILES notation. Calls of active or inactive are those of the source. No cut-off for these calls is given here.

In one experiment the test system is Saccharomyces cerevisiae. Description: Potency index, ratio of acarbose IC50 to test compound IC50 for Saccharomyces cerevisiae alpha-glucosidase.
As to `CC(C)[C@@H]1CC[C@@H](C)C[C@H]1OC(=O)Cn1cc(COC[C@H]2O[C@H](OCc3cn(CC(=O)O[C@@H]4C[C@H](C)CC[C@H]4C(C)C)nn3)[C@H](OCc3ccccc3)[C@@H](OCc3ccccc3)[C@@H]2OCc2ccccc2)nn1`, the Ratio IC50 was determined as 39.

The species entered for another experiment is Homo sapiens. Description: Competitive inhibition of alpha-glucosidase (unknown origin) by kinetics based analysis.
Consider `CC(C)[C@@H]1CC[C@@H](C)C[C@H]1OC(=O)Cn1cc(COC[C@H]2O[C@H](OCc3cn(CC(=O)O[C@@H]4C[C@H](C)CC[C@H]4C(C)C)nn3)[C@H](OCc3ccccc3)[C@@H](OCc3ccccc3)[C@@H]2OCc2ccccc2)nn1`, for which the inhibition result was “Active”.

Another experiment deals with Saccharomyces cerevisiae. In words: Inhibition of Saccharomyces cerevisiae alpha-glucosidase at 0.1 mg/ml.
Consider `O=C(Cn1cc(COC[C@H]2O[C@H](OCc3cn(CC(=O)c4cc5ccccc5oc4=O)nn3)[C@H](OCc3ccccc3)[C@@H](OCc3ccccc3)[C@@H]2OCc2ccccc2)nn1)c1cc2ccccc2oc1=O`, for which the inhibition entry is “inactive”.

Consider `COc1cccc(COC(=O)Cn2cc(COC[C@H]3O[C@H](OCc4cn(CC(=O)OCc5cccc(OC)c5)nn4)[C@H](OCc4ccccc4)[C@@H](OCc4ccccc4)[C@@H]3OCc3ccccc3)nn2)c1`, for which the inhibition result is “inactive”.

For the molecule `CCCCCCCCCCCCCCCCCCn1cc(COC[C@H]2O[C@H](OCc3cn(CCCCCCCCCCCCCCCCCC)nn3)[C@H](OCc3ccccc3)[C@@H](OCc3ccccc3)[C@@H]2OCc2ccccc2)nn1`, the inhibition entry was “inactive”. `CCCCCCCCCCCCCn1cc(COC[C@H]2O[C@H](OCc3cn(CCCCCCCCCCCCC)nn3)[C@H](OCc3ccccc3)[C@@H](OCc3ccccc3)[C@@H]2OCc2ccccc2)nn1`: the inhibition entry was “inactive”. Still for that read-out and setting: the same measure for `Cc1cc(COC(=O)Cn2cc(COC[C@H]3O[C@H](OCc4cn(CC(=O)OCc5ccc(Cl)c(C)c5)nn4)[C@H](OCc4ccccc4)[C@@H](OCc4ccccc4)[C@@H]3OCc3ccccc3)nn2)ccc1Cl`: “inactive”; for `c1ccc(CO[C@@H]2[C@@H](OCc3ccccc3)[C@@H](OCc3cn(C(c4ccccc4)c4ccccc4)nn3)O[C@H](COCc3cn(C(c4ccccc4)c4ccccc4)nn3)[C@H]2OCc2ccccc2)cc1`: “inactive”.

In the case of `COc1cccc(Cn2cc(COC[C@H]3O[C@H](OCc4cn(Cc5cccc(OC)c5)nn4)[C@H](OCc4ccccc4)[C@@H](OCc4ccccc4)[C@@H]3OCc3ccccc3)nn2)c1`, the inhibition result is “inactive”. The same measure, in the same setting: for `COc1ccc(OC)c(COC(=O)Cn2cc(COC[C@H]3O[C@H](OCc4cn(CC(=O)OCc5cc(OC)ccc5OC)nn4)[C@H](OCc4ccccc4)[C@@H](OCc4ccccc4)[C@@H]3OCc3ccccc3)nn2)c1` the value was “inactive”; for `C=CCc1ccccc1OCCn1cc(COC[C@H]2O[C@H](OCc3cn(CCOc4ccccc4CC=C)nn3)[C@H](OCc3ccccc3)[C@@H](OCc3ccccc3)[C@@H]2OCc2ccccc2)nn1`, “inactive”. In the case of `COc1cc(COC(=O)Cn2cc(COC[C@H]3O[C@H](OCc4cn(CC(=O)OCc5ccc(OCc6ccccc6)c(OC)c5)nn4)[C@H](OCc4ccccc4)[C@@H](OCc4ccccc4)[C@@H]3OCc3ccccc3)nn2)ccc1OCc1ccccc1`, the inhibition result was “inactive”. On the same count and under the same terms, for `O=C(Cn1cc(COC[C@H]2O[C@H](OCc3cn(CC(=O)OCc4ccccc4)nn3)[C@H](OCc3ccccc3)[C@@H](OCc3ccccc3)[C@@H]2OCc2ccccc2)nn1)OCc1ccccc1` the value was “inactive”; for `c1ccc(CCn2cc(COC[C@H]3O[C@H](OCc4cn(CCc5ccccc5)nn4)[C@H](OCc4ccccc4)[C@@H](OCc4ccccc4)[C@@H]3OCc3ccccc3)nn2)cc1`, “inactive”.

As to `COc1cc(Cn2cc(COC[C@H]3O[C@H](OCc4cn(Cc5ccc(OCc6ccccc6)c(OC)c5)nn4)[C@H](OCc4ccccc4)[C@@H](OCc4ccccc4)[C@@H]3OCc3ccccc3)nn2)ccc1OCc1ccccc1`, the inhibition entry was “inactive”. Still for that read-out and setting: the same measure for `O=C(Cn1cc(COC[C@H]2O[C@H](OCc3cn(CC(=O)OC(c4ccccc4)c4ccccc4)nn3)[C@H](OCc3ccccc3)[C@@H](OCc3ccccc3)[C@@H]2OCc2ccccc2)nn1)OC(c1ccccc1)c1ccccc1`: “inactive”; for `C=CCCCCCCCCCn1cc(COC[C@H]2O[C@H](OCc3cn(CCCCCCCCCC=C)nn3)[C@H](OCc3ccccc3)[C@@H](OCc3ccccc3)[C@@H]2OCc2ccccc2)nn1`: “inactive”; for `COc1ccc(COC(=O)Cn2cc(COC[C@H]3O[C@H](OCc4cn(CC(=O)OCc5ccc(OC)cc5)nn4)[C@H](OCc4ccccc4)[C@@H](OCc4ccccc4)[C@@H]3OCc3ccccc3)nn2)cc1`: “inactive”.

Target in the next experiment: not listed separately
Description: Inhibition of Saccharomyces cerevisiae alpha-glucosidase.
`O=[N+]([O-])c1ccc(Cn2cc(COC[C@H]3O[C@H](OCc4cn(Cc5ccc([N+](=O)[O-])cc5)nn4)[C@H](OCc4ccccc4)[C@@H](OCc4ccccc4)[C@@H]3OCc3ccccc3)nn2)cc1` came in with an IC50 of 53.3 µM.

Turning to `O=C(Cn1cc(COC[C@H]2O[C@H](OCc3cn(CC(=O)OCc4ccc([N+](=O)[O-])cc4)nn3)[C@H](OCc3ccccc3)[C@@H](OCc3ccccc3)[C@@H]2OCc2ccccc2)nn1)OCc1ccc([N+](=O)[O-])cc1`, the half-inhibitory concentration (IC50) was 5.68 µM.

The molecule `Fc1ccc(Cn2cc(COC[C@H]3O[C@H](OCc4cn(Cc5ccc(F)cc5)nn4)[C@H](OCc4ccccc4)[C@@H](OCc4ccccc4)[C@@H]3OCc3ccccc3)nn2)cc1` yielded an IC50 of 37.3 µM. Turning to `O=C(Cn1cc(COC[C@H]2O[C@H](OCc3cn(CC(=O)Oc4cccc5ccccc45)nn3)[C@H](OCc3ccccc3)[C@@H](OCc3ccccc3)[C@@H]2OCc2ccccc2)nn1)Oc1cccc2ccccc12`, half-maximal inhibition (IC50) required 9.98 µM. Regarding `Cc1ccc(OCCn2cc(COC[C@H]3O[C@H](OCc4cn(CCOc5ccc(C)cc5)nn4)[C@H](OCc4ccccc4)[C@@H](OCc4ccccc4)[C@@H]3OCc3ccccc3)nn2)cc1`, the IC50 came to 50.5 µM. Same read-out and setting: for `c1ccc(CO[C@@H]2[C@@H](OCc3ccccc3)[C@@H](OCc3cn(CCOc4cccc5ccccc45)nn3)O[C@H](COCc3cn(CCOc4cccc5ccccc45)nn3)[C@H]2OCc2ccccc2)cc1` the value was 29.4 µM. Still for that read-out and setting: the same measure for `CC(C)[C@@H]1CC[C@@H](C)C[C@H]1OC(=O)Cn1cc(COC[C@H]2O[C@H](OCc3cn(CC(=O)O[C@@H]4C[C@H](C)CC[C@H]4C(C)C)nn3)[C@H](OCc3ccccc3)[C@@H](OCc3ccccc3)[C@@H]2OCc2ccccc2)nn1`: 3.73 µM; for `O=c1ccc2cc(OCCCCCCn3cc(COC[C@H]4O[C@H](OCc5cn(CCCCCCOc6ccc7oc(=O)ccc7c6)nn5)[C@H](OCc5ccccc5)[C@@H](OCc5ccccc5)[C@@H]4OCc4ccccc4)nn3)ccc2o1`: 21.7 µM; for `COc1ccc(OC)c(Cn2cc(COC[C@H]3O[C@H](OCc4cn(Cc5cc(OC)ccc5OC)nn4)[C@H](OCc4ccccc4)[C@@H](OCc4ccccc4)[C@@H]3OCc3ccccc3)nn2)c1`: 3.86 µM. The same measure, in the same setting: for `c1ccc(CO[C@@H]2[C@@H](OCc3ccccc3)[C@@H](OCc3cn(CCOc4ccc5ccccc5c4)nn3)O[C@H](COCc3cn(CCOc4ccc5ccccc5c4)nn3)[C@H]2OCc2ccccc2)cc1` the value was 13.9 µM; for `C[C@H]1O[C@H](O[C@H]2[C@H](O)[C@@H](O)[C@@H](O[C@H]3[C@H](O)[C@@H](O)C(O)O[C@@H]3CO)O[C@@H]2CO)[C@H](O)[C@@H](O)[C@@H]1N[C@H]1C=C(CO)[C@@H](O)[C@H](O)[C@H]1O` (some centres undefined) [ACARBOSE], 146 µM. For `CCCCCCCC/C=C\CCCCCCCCn1cc(COC[C@H]2O[C@H](OCc3cn(CCCCCCCC/C=C\CCCCCCCC)nn3)[C@H](OCc3ccccc3)[C@@H](OCc3ccccc3)[C@@H]2OCc2ccccc2)nn1`, the IC50 stood at 14.1 µM. On the same count and under the same terms, the same measure for `c1ccc(CO[C@@H]2[C@@H](OCc3ccccc3)[C@@H](OCc3cn(Cc4ccccc4)nn3)O[C@H](COCc3cn(Cc4ccccc4)nn3)[C@H]2OCc2ccccc2)cc1`: 12.1 µM; for `O=C1C=C(OCCCCCCn2cc(COC[C@H]3O[C@H](OCc4cn(CCCCCCOC5=CC(=O)Cc6ccccc65)nn4)[C@H](OCc4ccccc4)[C@@H](OCc4ccccc4)[C@@H]3OCc3ccccc3)nn2)c2ccccc2C1`: 20.8 µM; for `O=[N+]([O-])c1cccc(Cn2cc(COC[C@H]3O[C@H](OCc4cn(Cc5cccc([N+](=O)[O-])c5)nn4)[C@H](OCc4ccccc4)[C@@H](OCc4ccccc4)[C@@H]3OCc3ccccc3)nn2)c1`: 22.9 µM.

In turn, `c1ccc(CO[C@@H]2[C@@H](OCc3ccccc3)[C@@H](OCc3cn(CCOc4ccccc4)nn3)O[C@H](COCc3cn(CCOc4ccccc4)nn3)[C@H]2OCc2ccccc2)cc1` yielded an IC50 of 24.4 µM.

A word on the IC50: it is the point on the concentration scale where inhibition reaches its midpoint. Higher therefore signals weaker potency in that assay.

The record behind these values is ChEMBL document CHEMBL4808241, “Synthesis and biological evaluation of 1,6-bis-triazole-2,3,4-tri-O-benzyl-α-d-glucopyranosides as a novel α-glucosidase inhibitor in the treatment of Type 2 diabetes” (Bioorg Med Chem Lett, 2021).
